These results are taken from paper PMC7727793, “Aggregation Behavior, Antibacterial Activity and Biocompatibility of Catanionic Assemblies Based on Amino Acid-Derived Surfactants” (International Journal of Molecular Sciences, 2020).

Usually pIC50 stands for the IC50 on a negative log10 scale, so that one unit is a factor of ten. As usually defined, the MIC is the least concentration at which growth counts as inhibited.

pIC50: −log10 of the molar value.

One test has as its system 3T3 cell line. In words: MTT cell viability assay. Particulars: 3T3, MTT, 24 h. It is filed as cell-based, murine. As to the method: (§1) The murine Swiss albino fibroblast (3T3), the squamous carcinoma (A431), the immortal human keratinocyte (HaCaT) and the human epithelial carcinoma (HeLa) cell lines were obtained from Celltec UB. Cells were grown in Dulbecco’s Modified Eagle’s Medium (DMEM) (4.5 g/L glucose) supplemented with 10% (v/v) fetal bovine serum (FBS), 1% (v/v) L-glutamine solution (200 mM) and 1% (v/v) penicillin-streptomycin solution (10,000 U/mL penicillin and 10 mg/mL streptomycin) at 37 °C and 5% CO2 (CO2 Incubator Nuaire, Plymouth, MN, USA). All the biological materials were purchased from Lonza (Verviers, Belgium). Cells were cultured in 75 cm^2 culture flasks (TPP, Trasadingen, Switzerland) and were routinely split using trypsin-EDTA (ethylenediaminetetraacetate) solution (170,000 U/L trypsin and 0.2 g/L EDTA) (Lonza, Verviers, Belgium) when cells are approximately 80% confluent. […]
(§2) In this assay, living cells reduce the yellow tetrazolium salt, 2,5-Diphenyl-3, -(4,5-dimethyl-2-thiazolyl) tetrazolium bromide (MTT), to insoluble purple formazan crystals. […] Then, the absorbance of the resulting solutions was measured at 550 nm using a Bio-Rad 550 microplate reader (Hercules, California, USA). The effect of each treatment was calculated as the percentage of tetrazolium salt reduction by viable cells against the untreated cell control (cells with medium only).
For orientation: Formazan colour is commonly taken as a measure of viable cells.

The subject of test [1] is all microorganisms tested. In words: Broth microdilution MIC, statement for all microorganisms tested. It is filed as cell-based. Particulars: for Antibacterial activity (in words): tested microorganisms. The procedure:
Antibacterial assays were conducted in vitro using the broth microdilution method. The minimum inhibitory concentration (MIC) is the smallest concentration of antibacterial agent at which bacterial growth is not observed. MIC values were determined for 4 Gram-positive bacteria (methicillin-resistant Staphylococcus aureus ATCC 43300 (MRSA), Bacillus subtilis ATCC 6633, Kocuria rhizophila 9341, Staphylococcus epidermidis ATCC 12228), 3 Gram-negative bacteria (Klebsiella pneumoniae ATCC 4532, Pseudomonas aeruginosa ATCC 27853, Escherichia coli ATCC 8739) and the fungal strain, Candida albicans ATCC 10231. Frozen stocks of bacteria were incubated on Muller Hinton agar plates for 24 h at 37 °C. From this culture, a bacterial suspension of 1 × 10^6 colony forming units CFU/mL was prepared in MHB (pH = 7.3). Two dilutions of pure surfactants and their binary mixtures were prepared in MH broth to obtain a final concentration ranging from 4 to 454 μM in the microtiter plates.
Then, 10 μL of nutrient broth culture of each microorganism was added to achieve a final density of ca. 5 × 10^5 CFU/mL. The cultures were incubated for 24 h at 37 °C. Every assay was repeated three times.
For orientation: Broth dilution looks for growth in wells or tubes with falling amounts of substance.

In another test the test system is A431 cell line. The experiment in a line: MTT cell viability assay. The class given is cell-based. As to the method: as §1, §2
For test [2], the system named is HaCaT cell line. In words: MTT cell viability assay. It is filed as cell-based, human. Particulars: 24 h. As to the method:
(§3) The murine Swiss albino fibroblast (3T3), the squamous carcinoma (A431), the immortal human keratinocyte (HaCaT) and the human epithelial carcinoma (HeLa) cell lines were obtained from Celltec UB. Cells were grown in Dulbecco’s Modified Eagle’s Medium (DMEM) (4.5 g/L glucose) supplemented with 10% (v/v) fetal bovine serum (FBS), 1% (v/v) L-glutamine solution (200 mM) and 1% (v/v) penicillin-streptomycin solution (10,000 U/mL penicillin and 10 mg/mL streptomycin) at 37 °C and 5% CO2 (CO2 Incubator Nuaire, Plymouth, MN, USA). All the biological materials were purchased from Lonza (Verviers, Belgium). Cells were cultured in 75 cm^2 culture flasks (TPP, Trasadingen, Switzerland) and were routinely split using trypsin-EDTA (ethylenediaminetetraacetate) solution (170,000 U/L trypsin and 0.2 g/L EDTA) (Lonza, Verviers, Belgium) when cells are approximately 80% confluent.
(§4) 3T3 and HaCaT cells (1 × 10^5 cells/ mL) and HeLa and A431 cells (5 × 10^4 cells/mL) were grown at the defined densities into the central 60 wells of a 96-well plate. Cells were incubated for 24 h under 5% CO2 at 37 °C. Then, the spent medium was removed, and cells were incubated during 24 h with the corresponding surfactant systems, previously diluted 50% (v/v) in DMEM medium supplemented with 5% FBS (100 µL).
(§5) In this assay, living cells reduce the yellow tetrazolium salt, 2,5-Diphenyl-3, -(4,5-dimethyl-2-thiazolyl) tetrazolium bromide (MTT), to insoluble purple formazan crystals. After the cells were incubated for 24 h with the corresponding systems, the medium was removed and 100 µL (5 mg/mL) of 2,5-Diphenyl-3,-(4,5-dimethyl-2-thiazolyl) tetrazolium bromide (MTT) (Sigma–Aldrich, St. Louis, MO, USA) in phosphate-buffered saline (PBS) (Lonza, Verviers, Belgium), diluted 1:10 in culture medium without phenol red and absence of FBS (Lonza, Verviers, Belgium), was added to the cells. The plates were incubated for 3 h, after which the medium was removed. Thereafter, 100 µL of dimethylsulfoxide (DMSO) (Sigma–Aldrich, St. Louis, MO, USA) was added to each well to dissolve the purple formazan crystals. Plates were then placed in a microtiter-plate shaker for 5 min at room temperature to help the total dissolution. Then, the absorbance of the resulting solutions was measured at 550 nm using a Bio-Rad 550 microplate reader (Hercules, California, USA). The effect of each treatment was calculated as the percentage of tetrazolium salt reduction by viable cells against the untreated cell control (cells with medium only).

A further test has as its system HeLa cell line. In words: MTT cell viability assay. The class given is cell-based, human. To be noted: 24 h. As to the method: as §3, §4, §5
Test [3] deals with HaCaT cell line. The experiment in a line: NRU cell viability assay. It is filed as cell-based, human. Particulars: 24 h. The procedure:
The murine Swiss albino fibroblast (3T3), the squamous carcinoma (A431), the immortal human keratinocyte (HaCaT) and the human epithelial carcinoma (HeLa) cell lines were obtained from Celltec UB. Cells were grown in Dulbecco’s Modified Eagle’s Medium (DMEM) (4.5 g/L glucose) supplemented with 10% (v/v) fetal bovine serum (FBS), 1% (v/v) L-glutamine solution (200 mM) and 1% (v/v) penicillin-streptomycin solution (10,000 U/mL penicillin and 10 mg/mL streptomycin) at 37 °C and 5% CO2 (CO2 Incubator Nuaire, Plymouth, MN, USA). All the biological materials were purchased from Lonza (Verviers, Belgium). Cells were cultured in 75 cm^2 culture flasks (TPP, Trasadingen, Switzerland) and were routinely split using trypsin-EDTA (ethylenediaminetetraacetate) solution (170,000 U/L trypsin and 0.2 g/L EDTA) (Lonza, Verviers, Belgium) when cells are approximately 80% confluent. 3T3 and HaCaT cells (1 × 10^5 cells/ mL) and HeLa and A431 cells (5 × 10^4 cells/mL) were grown at the defined densities into the central 60 wells of a 96-well plate. Cells were incubated for 24 h under 5% CO2 at 37 °C. […] Agitation, determination of the absorbance of the extracted solution and effect of each treatment in comparison with control cells were analogous of those described in the case of the MTT method.

Consider `CCCCCCCCCCCCCC(=O)O` [Sodium myristate, sodium myristate], for which the pIC50 is less than 4.30 with 3T3 cell line (Mus musculus, NIH3T3); less than 4.30 with A431 cell line (Homo sapiens, A-431, 24 h); less than 4.30 in the test on HaCaT cell line [2] (Homo sapiens); less than 4.30 with HeLa cell line (Homo sapiens); less than 4.30 with HaCaT cell line [3] (Homo sapiens). The MIC in test [1] (read-out: MIC for all microorganisms tested) was greater than 113 µM. The “Antibacterial activity (in words)” value in test [1] is on record as “did not show activity”.
“N(π),N(τ)-bis(methyl)-L-Histidine tetradecyl amide [DMHNHC14]”: the pIC50 with 3T3 cell line is 4.77; in the test on A431 cell line (24 h), 4.65; with HaCaT cell line [2], 4.59; in the test with HeLa cell line, 5.47; in the test with HaCaT cell line [3], 4.34. Besides, in test [1], the “Antibacterial activity (in words)” value is “broad spectrum of antibacterial activity”.
